Measured values published in patent US9949485B2, “Use of acylsulfonamides for improving plant yield” (BAYER CROPSCIENCE AG, priority 2013, dated 2018).

Assays:
[1] = test system: Triticum aestivum variety “AC Harvest”; experiment: Growth chamber trial, post-emergence spray application, grain yield at full maturity; format: in vivo; conditions: single active ingredient, dose rate 10 g ai/ha; for change in vivo at 10 g/ha / response vs control in vivo at 10 g/ha: Triticum aestivum, post-emergence; for change in vivo at 10 g/ha: grain yield difference, read-out: Difference (%) vs. UTC; for response vs control in vivo at 10 g/ha: grain yield relative to UTC (100.0); for Grain Yield, g/plant: spray at BBCH 56-61, slightly reduced water, average of five replicates
[2] = test system: Triiticum aestivum seeds (TRZAS); experiment: Seed treatment trial, grain yield; format: in vivo, Triticum aestivum; conditions: for Difference (%) vs. UTC: grain yield difference; for Relative, %: grain yield relative to UTC (100.0)
[3] = single active ingredient, 1 g ai/kg seed

| Compound | change in vivo at 10 g/ha [1] [%] | response vs control in vivo at 10 g/ha [1] [%] | also measured |
| --- | --- | --- | --- |
| CN/C(=N\[N+](=O)[O-])NCc1cnc(Cl)s1 [Clothianidin (I-3), clothianidin] | 12.3 | 112 |  |
| CNC(=O)Nc1ccc(S(=O)(=O)NC(=O)c2ccccc2OC)cc1 [Compound (A1), N-(2-methoxybenzoyl)-4-[(methylaminocarbonyl)amino]benzenesulfonamide] | 12.3 | 112 | Grain Yield, g/plant [1]: 1.19 g/plant; Grain Yield, g/plant ([2]; dose rate 0.5 g ai/kg seed): 1.90 g/plant; Difference (%) vs. UTC ([2]; 0.5 g ai/kg seed): +5.6%; Difference (%) vs. UTC [2, 3]: +3.9%; Relative, % ([2]; 0.5 g ai/kg seed): 105.6%; Relative, % [2, 3]: 103.9%; Grain Yield, g/plant ([2]; single active ingredient, dose rate 1 g ai/kg seed): 1.87 g/plant |
| CC1COC(Cn2cncn2)(c2ccc(Oc3ccc(Cl)cc3)cc2Cl)O1 (centres unmarked) [Difenoconazole (F-105), difenoconazole] | -3.8 | 96.2 |  |
| N#Cc1nn(-c2c(Cl)cc(C(F)(F)F)cc2Cl)c(N)c1[S+]([O-])C(F)(F)F (centres unmarked) [Fipronil (I-8), fipronil] | 12.3 | 112 |  |
| O=[N+]([O-])NC1=NCCN1Cc1ccc(Cl)nc1 [Imidacloprid (I-11), imidacloprid] | 7.5 | 108 |  |
| OC(Cc1ccccc1Cl)(Cn1nc[nH]c1=S)C1(Cl)CC1 (centres unmarked) [Prothioconazole (F-124), prothioconazole] | -3.8 | 96.2 |  |
| COC(=O)N(OC)c1ccccc1COc1ccn(-c2ccc(Cl)cc2)n1 [Pyraclostrobin (F-57), pyraclostrobin] | 17 | 117 |  |
| CN1COCN(Cc2cnc(Cl)s2)/C1=N\[N+](=O)[O-] [Thiamethoxam (I-19), thiamethoxam] | 22.6 | 123 | Grain Yield, g/plant [1]: 1.30 g/plant |
| CON=C(C(=O)OC)c1ccccc1CON=C(C)c1cccc(C(F)(F)F)c1 [Trifloxystrobin (F-60), trifloxystrobin] | 5.7 | 106 |  |
